Test results as given in PubChem BioAssay (NCI).
“And” between values parts separate entries of the source, which are not always exact repeats. Identical values can stand only once.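 48-hour exposure; five concentrations; linearly interpolated endpoints. GI50 = concentration required for 50% inhibition of growth. TGI denotes the concentration required for complete inhibition of growth.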

Legend:
Assay in all cases: inhibition of tumour cell growth, NCI panel, 48 h
MDA-MB-231 breast = tested on: MDA-MB-231 breast
SF-539 CNS = tested on: SF-539 CNS
OVCAR-5 ovarian = tested on: OVCAR-5 ovarian
A549 NSCLC = tested on: A549 NSCLC
IGROV1 ovarian = tested on: IGROV1 ovarian
UACC-62 melanoma = tested on: UACC-62 melanoma
OVCAR-3 ovarian = tested on: OVCAR-3 ovarian
SK-MEL-28 melanoma = tested on: SK-MEL-28 melanoma
MDA-MB-435 = tested on: MDA-MB-435
MALME-3M melanoma = tested on: MALME-3M melanoma

| Structure (SMILES) | GI50 (MDA-MB-231 breast) [nM] | TGI (MDA-MB-231 breast) | GI50 (SF-539 CNS) [nM] | TGI (SF-539 CNS) | GI50 (OVCAR-5 ovarian) [nM] | TGI (OVCAR-5 ovarian) | GI50 (A549 NSCLC) [nM] | TGI (A549 NSCLC) [µM] | GI50 (IGROV1 ovarian) [nM] | TGI (IGROV1 ovarian) | GI50 (UACC-62 melanoma) [nM] | TGI (UACC-62 melanoma) | GI50 (OVCAR-3 ovarian) [nM] | TGI (OVCAR-3 ovarian) | GI50 (SK-MEL-28 melanoma) [nM] | TGI (SK-MEL-28 melanoma) | GI50 (MDA-MB-435) [nM] | TGI (MDA-MB-435) | GI50 (MALME-3M melanoma) [nM] | TGI (MALME-3M melanoma) |
| --- | --- | --- | --- | --- | --- | --- | --- | --- | --- | --- | --- | --- | --- | --- | --- | --- | --- | --- | --- | --- |
| COC(=O)Nc1nc2ccc(C(=O)c3ccc(F)cc3)cc2[nH]1 | 563 | 13.6 µM | 242 | 778 nM | 2450 | > 100 µM | 468 | > 100 | 513 | > 66.1 µM | 199 | 17.8 µM | 51.7 | 211 nM | 556 | > 100 µM | 33.5 | 0.155 µM | 193 | 26.9 µM |
| C[C@]12CC[C@H]3[C@@H](CC[C@]4(O)C[C@@H](O[C@@H]5O[C@H](CO)[C@@H](O[C@@H]6OC[C@@H](O)[C@H](O)[C@H]6O)[C@H](O)[C@H]5O)CC[C@]34C=O)[C@@]1(O)CC[C@@H]2C1=CC(=O)OC1 | 3380 | 22 µM | 853 | 1840 nM | 1770 | 6.32 µM | 581 | 1.28 | 1840 | 17.6 µM | 1610 | 5.04 µM | 1170 | 3080 nM | 2760 | 15.6 µM | 1710 | 6.17 µM | 1490 | 3.45 µM |
| CC[C@@]1(O)C(=O)OCc2c1cc1n(c2=O)Cc2c-1nc1cc(F)c(C)c3c1c2[C@@H](NC(=O)CO)CC3 | 511 | > 100 µM | < 10 | 40.4 nM | 115 |  | 50.3 | 7.51 | 44.9 | 1.92 µM | < 10 | 0.117 µM | 60.3 | 1650 nM | 176 | 4.56 µM | 61.2 | 3.05 µM | 30.4 | 1.08 µM |
| COc1cc(C)[nH]c(=O)c1CNC(=O)c1c(C)n([C@H](C)C2CCN(CC(F)(F)F)CC2)c2ccccc12 | 51000 | > 100 µM | 67400 | > 100000 nM | > 100000 | > 100 µM | 87400 | > 100 | 49200 | > 100 µM | 32500 | > 100 µM | 43300 | > 100000 nM | 60800 | > 100 µM | 46000 | > 100 µM | 87800 | > 100 µM |
| O=C(/C=C/C=C/c1ccc2c(c1)OCO2)N/N=C\c1ccc(O)cc1O | 3490 | 19.3 µM | 2700 | 11600 nM | 3870 | 27.4 µM | 2930 | 33.8 | 2230 | 14.3 µM | 1630 | 7.08 µM | 345 | 12800 nM | 2970 | 19.6 µM | 4350 | 19 µM | 2030 | 10.5 µM |
| COc1ccc(/C=C\c2cc(OC)c(OC)c(OC)c2)c(NS(=O)(=O)c2ccc(F)cc2)c1O | 97.7 | 70.9 µM | 62.2 | 192 nM | 202 | > 100 µM | 164 | > 100 | 212 | > 100 µM | 45.2 | > 80.1 µM | 32.2 | 1410 nM | 484 | > 100 µM | 20.4 | 0.0515 µM | 10200 | > 100 µM |
| CO/C(=C1/NC(=O)C(Cc2ccc(O)c(Br)c2)N(C)C(=O)C(C)NC(=O)CCC/C=C(\C)CCC(C)OC1=O)c1ccccc1 (stereo unspecified) | 34.8 | 6.58 µM | 28.1 | 783 nM | 44.5 | > 35 µM | < 14.1 | 0.471 | 19.9 | 0.0465 µM | 75.3 | 20.4 µM | < 16.4 | 37.6 nM | < 13.4 | 0.0419 µM | 38.5 | 13.3 µM | 31.9 | 0.123 µM |
| Nc1nc(N)c2c(n1)CCC(S(=O)(=O)c1ccc3ccccc3c1)C2 (stereo unspecified) |  | > 60.5 µM |  | > 100000 nM |  | > 100 µM |  | > 100 | 1940 | > 100 µM | 678 | > 100 µM |  | > 82900 nM |  | > 100 µM |  | > 100 µM |  | 42.7 µM |
| COCCn1c2c([n+](Cc3cnccn3)c1C)C(=O)c1ccccc1C2=O | < 10 | 0.013 µM | < 10 | 33.7 nM | 30.8 | 0.129 µM | 16.6 | 0.0434 | < 10 | < 0.0169 µM | 18.5 | 0.0454 µM | < 10 | < 10 nM | 16.4 | 0.0419 µM | < 10 | < 0.01 µM | 126 | 0.316 µM |
| O=C1OCC2=C1C(c1cccc(Cl)c1)c1cc3c(cc1N2CCO)CCC3 (stereo unspecified) | 217 | 2.21 µM | 36.1 | 7530 nM | 143 | 18.2 µM | 47.7 | 6.45 | 121 | 15.6 µM | 42.7 | 15.3 µM | 25.3 | 66.6 nM | 57.4 | 20.2 µM | 20 | 0.0491 µM | 49.4 | 22.7 µM |
| c1ccc(CC(Nc2cccnc2)c2ccccc2)cc1 (stereo unspecified) |  | 48.7 µM |  | 40500 nM |  | 98.8 µM |  | > 100 |  | > 100 µM |  | 36.9 µM |  | 34300 nM |  | > 100 µM |  | 64.4 µM |  | 72.4 µM |
| CCC(C)C1NC(=O)C(NC(=O)C(CC(C)C)N(C)C(=O)[C@@H]2CC(O)CN2C(=O)[C@H](C)O)C(C)OC(=O)[C@H](Cc2ccc(OC)cc2)N(C)C(=O)[C@@H]2CCCN2C(=O)[C@H](CC(C)C)NC(=O)C(C)C(=O)[C@H](C(C)C)OC(=O)CC1O (stereo partly specified) | 92.6 | 0.991 µM and 3.95 µM | 10.4 | 211 nM and 335 nM | 417 | 2.53 µM and 2.14 µM | 27.7 | 1.91 | 19.1 | 1.4 µM and 0.312 µM | < 10 | 0.361 µM and 0.0495 µM | 79.3 | 1260 nM and 982 nM | < 10 | 0.467 µM and 0.256 µM | 36.5 | 0.705 µM and 0.41 µM | 13 | 1.07 µM and 0.185 µM |
